# Results as given in US20120058504A1, “METHODS AND APPARATUS FOR DIELECT[…] AND MEASUREMENT OF SINGLE CELLS OR OTHER PARTICLES IN MI[…]” (SIMON FRASER UNIVERSITY, priority 2009, published 2012).
# Key:
# [1] = system: MDR leukemia cancer cell (CEM VLB); assay: DNR accumulation and MDR reversal in a single cell, DEP-based microfluidic chip (Chip IV), fluorescence measurement; details: DNR 35 μM, before CsA was delivered, 100-200 s, 35° C.
# Procedure: Furthermore, DEP conditions were optimized to move a single multidrug resistant cancer cell 43 during fluorescence measurement using Chip TV (FIG. 20). Cell 43 was transferred out of fluorescent detection window 47 and back into detection window 47 by switching the voltage between electrodes AB and electrodes BC. When cell 43 was moved out of detection window 47, only the background (Fbackground) was measured. When cell 43 was moved back into detection window 47, the total fluorescence (Ftotal) was measured. By background correction, the absolute fluorescence of cell 43 (Fcell=Ftotal−Fbackground) was obtained. At the same time, a chemo-therapeutic drug, daunorubicin (DNR) was delivered to cell retention region 30 via solution reservoir 18B and microchannel 20B. The uptake of DNR inside a single MDR cancer cell 43 (CEM VLB) was monitored. The measurement results are depicted in FIG. 20b, showing many cycles of cell fluorescence (peaks) and troughs (background). […]
# After DEP-based single cell chip 10 (Chip IV, FIG. 20) was used to move leukemia cancer cell 43 into and out of detection window 47 during fluorescence measurement for anticancer drug (for example, daunorubicin (DNR)) accumulation inside cell 43, chip 10 was further used for MDR reversal studies at an elevated temperature (35° C.). […]
# [2] = system: CEM VLB cell; assay: DNR accumulation in a single adhered cell, SASCA method (chip without DEP electrodes), fluorescence measurement; assay type: cell-based; details: chip translated, α-MEM medium
# Procedure: (b) The fluorescent measurement of the adhered cell when the chip was translated into the measurement window (the peak provides the total fluorescence) and out of the measurement window (the baseline provides the background).
# The SASCA method was performed for comparison with the DEP-based method. The SASCA method was performed in a chip without DEP electrodes. Cell 43 was moved into and out detection window 47 and at the same time DNR was delivered to cell retention region 30 (FIG. 21). In the SASCA method, cell movement was achieved by moving the chip with cell 43 which adheres to the bottom surface of cell retention region 30 in the chip.
smiles,measurement,setting,value
"COc1cccc2c1C(=O)c1c(O)c3c(c(O)c1C2=O)C[C@@](O)(C(C)=O)C[C@@H]3O[C@H]1C[C@H](N)[C@H](O)[C@H](C)O1 [DNR, daunorubicin]","DNR accumulation in cell (cell fluorescence, peaks minus troughs)",[1],very little DNR accumulation
same,DNR accumulation in cell (fluorescence of cell over measurement time),[2],accumulated inside the cell
